Source: PubChem BioAssay AID248 (DTP/NCI, 2004)
Where “and” joins values, the source holds several entries; their conditions need not be identical. Equal entries are not always repeated. Toxic doses and inconclusive results are not listed.

Test system: L1210 leukemia ip in BDF1 mice, survival T/C
Experiment: NCI In Vivo Anticancer Drug Screen. Data for tumor model L1210 Leukemia (intraperitoneal) in B6D2F1 (BDF1) mice
Conditions: higher = longer survival
Method in brief: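 Value reflects the ratio of survival in compound-treated mice to survival in vehicle-treated controls, with both groups carrying the same transplanted tumor.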

[1] = endpoint: mean survival time, dose: 100.0 mg/kg/injection, schedule: Q01DX001 (ip), vehicle: saline
[2] = endpoint: mean survival time, dose: 200.0 mg/kg/injection, schedule: Q01DX001 (ip), vehicle: saline
[3] = endpoint: mean survival time, dose: 400.0 mg/kg/injection, schedule: Q01DX001 (ip), vehicle: carboxymethylcellulose (CMC)
[4] = endpoint: mean survival time, dose: 400.0 mg/kg/injection, schedule: Q01DX001 (ip), vehicle: saline
[5] = endpoint: mean survival time, dose: 25.0 mg/kg/injection, schedule: Q04DX002 (ip), vehicle: Klucel (hydroxypropylcellulose) (HPC)
[6] = endpoint: mean survival time, dose: 50.0 mg/kg/injection, schedule: Q04DX002 (ip), vehicle: Klucel (hydroxypropylcellulose) (HPC)
[7] = endpoint: mean survival time, dose: 100.0 mg/kg/injection, schedule: Q04DX002 (ip), vehicle: Klucel (hydroxypropylcellulose) (HPC)
[8] = endpoint: mean survival time, dose: 200.0 mg/kg/injection, schedule: Q04DX002 (ip), vehicle: saline
[9] = endpoint: mean survival time, dose: 100.0 mg/kg/injection, schedule: Q01DX001 (ip), vehicle: other
[10] = endpoint: mean survival time, dose: 200.0 mg/kg/injection, schedule: Q01DX001 (ip), vehicle: other

CCN(CC)CCNc1ccc(CO)c2sc3ccccc3c(=O)c12
T/C (endpoint: mean survival time, dose: 8.0 mg/kg/injection, schedule: Q01DX009 (ip), vehicle: clinical formulation): 108 % of control | T/C (endpoint: mean survival time, dose: 8.0 mg/kg/injection, schedule: Q01DX009 (ip), vehicle: water): 106 % of control | T/C (endpoint: mean survival time, dose: 16.0 mg/kg/injection, schedule: Q01DX009 (ip), vehicle: clinical formulation): 112 % of control | T/C (endpoint: mean survival time, dose: 16.0 mg/kg/injection, schedule: Q01DX009 (ip), vehicle: water): 92 % of control | T/C (endpoint: mean survival time, dose: 18.75 mg/kg/injection, schedule: Q01DX009 (ip), vehicle: saline): 118 % of control | T/C (endpoint: mean survival time, dose: 22.0 mg/kg/injection, schedule: Q01DX009 (ip), vehicle: saline): 115 % of control | T/C (endpoint: mean survival time, dose: 32.0 mg/kg/injection, schedule: Q01DX009 (ip), vehicle: clinical formulation): 121 % of control | T/C (endpoint: mean survival time, dose: 32.0 mg/kg/injection, schedule: Q01DX009 (ip), vehicle: water): 117 % of control | T/C (endpoint: mean survival time, dose: 35.0 mg/kg/injection, schedule: Q01DX009 (ip), vehicle: saline): 123 % of control | T/C (endpoint: mean survival time, dose: 50.0 mg/kg/injection, schedule: Q04DX003 (ip), vehicle: saline): 90 % of control | T/C (endpoint: mean survival time, dose: 64.0 mg/kg/injection, schedule: Q01DX009 (ip), vehicle: clinical formulation): 164 % of control | T/C (endpoint: mean survival time, dose: 64.0 mg/kg/injection, schedule: Q01DX009 (ip), vehicle: water): 157 % of control | T/C (endpoint: mean survival time, dose: 81.0 mg/kg/injection, schedule: Q01DX009 (ip), vehicle: Klucel (hydroxypropylcellulose) (HPC)): 120 % of control | T/C [1]: 102 % of control | T/C (endpoint: mean survival time, dose: 100.0 mg/kg/injection, schedule: Q04DX003 (ip), vehicle: saline): 106 % of control | T/C (endpoint: mean survival time, dose: 112.0 mg/kg/injection, schedule: Q01DX009 (ip), vehicle: saline): 98 % of control and 105 % of control | T/C (endpoint: mean survival time, dose: 122.0 mg/kg/injection, schedule: Q01DX009 (ip), vehicle: Klucel (hydroxypropylcellulose) (HPC)): 112 % of control | T/C (endpoint: mean survival time, dose: 128.0 mg/kg/injection, schedule: Q01DX009 (ip), vehicle: clinical formulation): 91 % of control | T/C (endpoint: mean survival time, dose: 128.0 mg/kg/injection, schedule: Q01DX009 (ip), vehicle: water): 110 % of control | T/C (endpoint: mean survival time, dose: 150.0 mg/kg/injection, schedule: Q01DX009 (ip), vehicle: saline): 93 % of control | T/C [2]: 110 % of control | T/C (endpoint: mean survival time, dose: 200.0 mg/kg/injection, schedule: Q01DX009 (ip), vehicle: Klucel (hydroxypropylcellulose) (HPC)): 120 % of control | T/C (endpoint: mean survival time, dose: 200.0 mg/kg/injection, schedule: Q04DX003 (ip), vehicle: saline): 173 % of control | T/C (endpoint: mean survival time, dose: 264.0 mg/kg/injection, schedule: Q01DX001 (ip), vehicle: carboxymethylcellulose (CMC)): 112 % of control | T/C (endpoint: mean survival time, dose: 264.0 mg/kg/injection, schedule: Q01DX009 (ip), vehicle: carboxymethylcellulose (CMC)): 124 % of control | T/C (endpoint: mean survival time, dose: 300.0 mg/kg/injection, schedule: Q04DX003 (ip), vehicle: saline): 184 % of control | T/C [3]: 157 % of control | T/C (endpoint: median survival time, dose: 4.0 mg/kg/injection, schedule: Q01DX009 (ip), vehicle: saline): 90 % of control | T/C (endpoint: median survival time, dose: 4.0 mg/kg/injection, schedule: Q03HX016 (ip), vehicle: saline): 100 % of control | T/C (endpoint: median survival time, dose: 4.0 mg/kg/injection, schedule: Q03HX024 (ip), vehicle: saline): 100 % of control | T/C (endpoint: median survival time, dose: 8.0 mg/kg/injection, schedule: Q01DX009 (ip), vehicle: saline): 100 % of control | T/C (endpoint: median survival time, dose: 8.0 mg/kg/injection, schedule: Q03HX008 (ip), vehicle: saline): 100 % of control | T/C (endpoint: median survival time, dose: 8.0 mg/kg/injection, schedule: Q03HX016 (ip), vehicle: saline): 100 % of control | T/C (endpoint: median survival time, dose: 8.0 mg/kg/injection, schedule: Q03HX024 (ip), vehicle: saline): 105 % of control | T/C (endpoint: median survival time, dose: 16.0 mg/kg/injection, schedule: Q01DX009 (ip), vehicle: saline): 110 % of control | T/C (endpoint: median survival time, dose: 16.0 mg/kg/injection, schedule: Q01DX009 (sc), vehicle: saline): 100 % of control | T/C (endpoint: median survival time, dose: 16.0 mg/kg/injection, schedule: Q03HX008 (ip), vehicle: saline): 110 % of control | T/C (endpoint: median survival time, dose: 16.0 mg/kg/injection, schedule: Q03HX016 (ip), vehicle: saline): 100 % of control | T/C (endpoint: median survival time, dose: 32.0 mg/kg/injection, schedule: Q01DX001 (ip), vehicle: saline): 100 % of control | T/C (endpoint: median survival time, dose: 32.0 mg/kg/injection, schedule: Q01DX009 (oral), vehicle: saline): 100 % of control and 120 % of control | T/C (endpoint: median survival time, dose: 32.0 mg/kg/injection, schedule: Q01DX009 (sc), vehicle: saline): 115 % of control | T/C (endpoint: median survival time, dose: 32.0 mg/kg/injection, schedule: Q04DX003 (ip), vehicle: saline): 100 % of control | T/C (endpoint: median survival time, dose: 32.0 mg/kg/injection, schedule: Q08DX002 (ip), vehicle: saline): 100 % of control | T/C (endpoint: median survival time, dose: 64.0 mg/kg/injection, schedule: Q01DX001 (ip), vehicle: saline): 100 % of control | T/C (endpoint: median survival time, dose: 64.0 mg/kg/injection, schedule: Q01DX001 (sc), vehicle: saline): 100 % of control | T/C (endpoint: median survival time, dose: 64.0 mg/kg/injection, schedule: Q01DX009 (oral), vehicle: saline): 115 % of control | T/C (endpoint: median survival time, dose: 64.0 mg/kg/injection, schedule: Q04DX003 (ip), vehicle: saline): 110 % of control | T/C (endpoint: median survival time, dose: 64.0 mg/kg/injection, schedule: Q08DX002 (ip), vehicle: saline): 100 % of control | T/C (endpoint: median survival time, dose: 128.0 mg/kg/injection, schedule: Q01DX001 (ip), vehicle: saline): 110 % of control | T/C (endpoint: median survival time, dose: 128.0 mg/kg/injection, schedule: Q01DX001 (sc), vehicle: saline): 105 % of control | T/C (endpoint: median survival time, dose: 128.0 mg/kg/injection, schedule: Q01DX009 (oral), vehicle: saline): 120 % of control | T/C (endpoint: median survival time, dose: 128.0 mg/kg/injection, schedule: Q01DX009 (sc), vehicle: saline): 95 % of control | T/C (endpoint: median survival time, dose: 256.0 mg/kg/injection, schedule: Q01DX001 (oral), vehicle: saline): 110 % of control and 120 % of control | T/C (endpoint: median survival time, dose: 256.0 mg/kg/injection, schedule: Q01DX009 (oral), vehicle: saline): 100 % of control | T/C (endpoint: median survival time, dose: 512.0 mg/kg/injection, schedule: Q01DX001 (oral), vehicle: saline): 110 % of control and 120 % of control

CC(C#N)NC(=O)NC(C)C(N)=O (centres undefined)
T/C [1]: 107 % of control | T/C [2]: 107 % of control | T/C [4]: 97 % of control

CCOC1(O)C(=O)c2ccccc2OC1(OCC)c1ccccc1 (centres undefined)
T/C (endpoint: mean survival time, dose: 50.0 mg/kg/injection, schedule: Q01DX001 (ip), vehicle: saline): 93 % of control | T/C [1]: 96 % of control | T/C [2]: 96 % of control | T/C [4]: 98 % of control

CCN(CC)CCCN=C(N)CCl
T/C (endpoint: mean survival time, dose: 12.5 mg/kg/injection, schedule: Q01DX009 (ip), vehicle: Klucel (hydroxypropylcellulose) (HPC)): 96 % of control | T/C (endpoint: mean survival time, dose: 25.0 mg/kg/injection, schedule: Q01DX009 (ip), vehicle: Klucel (hydroxypropylcellulose) (HPC)): 96 % of control | T/C [5]: 114 % of control | T/C [6]: 107 % of control | T/C [7]: 95 % of control

CCOC(=O)c1cnc(NCC(C)(C)C)[nH]c1=O
T/C [1]: 95 % of control | T/C [2]: 91 % of control | T/C [4]: 91 % of control

CC[N+]1(CC)CC[N+](CC)(CC)CC1
T/C [1]: 97 % of control | T/C (endpoint: mean survival time, dose: 100.0 mg/kg/injection, schedule: Q04DX002 (ip), vehicle: saline): 96 % of control | T/C [2]: 97 % of control | T/C [8]: 96 % of control | T/C [4]: 102 % of control | T/C (endpoint: mean survival time, dose: 400.0 mg/kg/injection, schedule: Q04DX002 (ip), vehicle: saline): 107 % of control

CNC(=O)Oc1cccc(C(F)(F)F)c1
T/C (endpoint: mean survival time, dose: 100.0 mg/kg/injection, schedule: Q01DX001 (ip), vehicle: carboxymethylcellulose (CMC)): 90 % of control | T/C (endpoint: mean survival time, dose: 200.0 mg/kg/injection, schedule: Q01DX001 (ip), vehicle: carboxymethylcellulose (CMC)): 98 % of control | T/C [3]: 92 % of control

CCc1cc2c([nH]c3ccccc32)c(C)c1CCN(C)C
T/C (endpoint: mean survival time, dose: 50.0 mg/kg/injection, schedule: Q01DX001 (ip), vehicle: other): 101 % of control | T/C [9]: 97 % of control | T/C [10]: 95 % of control

CC1=CC(=O)C(C(C)C)C1 (centres undefined)
T/C [9]: 98 % of control | T/C [10]: 109 % of control | T/C (endpoint: mean survival time, dose: 400.0 mg/kg/injection, schedule: Q01DX001 (ip), vehicle: other): 95 % of control

O=C1C=CC[C@H](/C=C/c2ccccc2)O1
T/C (endpoint: mean survival time, dose: 50.0 mg/kg/injection, schedule: Q01DX001 (ip), vehicle: alcohol): 101 % of control | T/C (endpoint: mean survival time, dose: 100.0 mg/kg/injection, schedule: Q01DX001 (ip), vehicle: alcohol): 103 % of control | T/C (endpoint: mean survival time, dose: 200.0 mg/kg/injection, schedule: Q01DX001 (ip), vehicle: alcohol): 101 % of control | T/C (endpoint: mean survival time, dose: 400.0 mg/kg/injection, schedule: Q01DX001 (ip), vehicle: alcohol): 107 % of control

Cc1cc(C)c(C2CC3CCC2C3)cc1N (centres undefined)
T/C [5]: 100 % of control | T/C [6]: 100 % of control | T/C [7]: 100 % of control | T/C (endpoint: mean survival time, dose: 100.0 mg/kg/injection, schedule: Q04DX003 (ip), vehicle: Klucel (hydroxypropylcellulose) (HPC)): 90 % of control | T/C [8]: 96 % of control
